In brackets after ≈: the same amount, converted by molar mass. Blank lines part the entries; values can stand above or below the compound they belong to.
Experiments:
Assay in all cases: ≥ marks a high value that may be exact or a test limit, other limits are often not marked, values filed in µg/mL are converted to µM
[1] = tested on: Escherichia coli ATCC 25922
[2] = tested on: Staphylococcus aureus ATCC 12600
[3] = tested on: Staphylococcus epidermidis ATCC 14990
[4] = tested on: Streptococcus salivarius ATCC 13419
Bacillus cereus IFO 3457 = tested on: Bacillus cereus IFO 3457
[5] = tested on: Bacillus subtilis ATCC 6633
[6] = tested on: Bacillus subtilis IFO 13722
[7] = tested on: Escherichia coli ATCC 39188
Escherichia coli CE273 = tested on: Escherichia coli CE273
Escherichia coli CR3 = tested on: Escherichia coli CR3
[8] = tested on: Escherichia coli JCM 1649
[9] = tested on: Escherichia coli NIHJ JC-2
[10] = tested on: Salmonella enterica subsp. enterica serovar Enteritidis ATCC 1891
[11] = tested on: Salmonella enterica subsp. enterica serovar Typhimurium ATCC 14028
[12] = tested on: Staphylococcus aureus FDA 209P JC-1
[13] = tested on: Staphylococcus aureus IFO 13276
[14] = tested on: Staphylococcus aureus JCM 2431
[15] = tested on: Staphylococcus aureus Smith
[16] = tested on: Vibrio parahaemolyticus IFO12711
[17] = tested on: Candida albicans ATCC 90028
[18] = tested on: Candida parapsilosis ATCC 22019
Enterococcus faecium = tested on: Enterococcus faecium
Escherichia coli O157 = tested on: Escherichia coli O157
[19] = tested on: Malassezia furfur KCTC 7744
Pseudomonas aeruginosa 1 = tested on: Pseudomonas aeruginosa 1
Pseudomonas aeruginosa = tested on: Pseudomonas aeruginosa
Staphylococcus aureus 1 = tested on: Staphylococcus aureus 1
Staphylococcus aureus 4 = tested on: Staphylococcus aureus 4
Staphylococcus aureus = tested on: Staphylococcus aureus
[20] = tested on: Trichosporon beigelii KCTC 7707
[21] = tested on: Bacillus megaterium KCTC 1096
[22] = tested on: Bacillus subtilis KCTC 1918
[23] = tested on: Escherichia coli KCTC 1682
Proteus vulgaris = tested on: Proteus vulgaris
[24] = tested on: Pseudomonas aeruginosa KCTC 1637
[25] = tested on: Staphylococcus aureus KCTC 1621
[26] = tested on: Candida albicans TIMM 1768
[27] = tested on: Proteus vulgaris KCTC 2433
[28] = tested on: Saccharomyces cerevisiae KCTC 7296
[29] = tested on: Salmonella typhimurium KCTC 1926

MIC [1]: 3.4 µM (≈ 11.6 µg/mL)
MIC [2]: ≥ 80 µM
MIC [3]: ≥ 80 µM
MIC [4]: 5.9 µM (≈ 20.1 µg/mL)
Compound: CC(C)C[C@@H]1NC(=O)[C@H](C(C)C)NC(=O)[C@H](Cc2ccccc2)NC(=O)[C@@H]2CSSC[C@@H]3NC(=O)[C@H](Cc4ccc(O)cc4)NC(=O)[C@@H]4CSSC[C@H](NC(=O)[C@H](CCCN=C(N)N)NC(=O)[C@H]([C@@H](C)O)NC(=O)CNC(=O)[C@H](CC(N)=O)NC(=O)[C@H](CCCN=C(N)N)NC(=O)[C@H](Cc5ccc(O)cc5)NC(=O)[C@H](CSSC[C@H](NC(=O)[C@@H]5CCCN5C1=O)C(=O)N[C@@H](Cc1c[nH]c5ccccc15)C(=O)N[C@@H](CO)C(=O)N[C@@H](C)C(=O)N[C@@H](CCCCN)C(=O)N[C@@H](Cc1ccccc1)C(=O)NCC(=O)N4)NC(=O)[C@H](Cc1ccccc1)NC(=O)CNC(=O)[C@H](CCCCN)NC(=O)[C@H](CCC(N)=O)NC3=O)C(=O)NCC(=O)N[C@@H](CCC(=O)O)C(=O)N[C@@H]([C@@H](C)O)C(=O)N2 [GTRCGETCFVLPCWSAKFGCYCQKGFCYRN]

MIC (Bacillus cereus IFO 3457): 3.1 µM (≈ 7.49 µg/mL)
MIC [5]: 3.1 µM (≈ 7.49 µg/mL)
MIC [6]: 6.3 µM (≈ 15.2 µg/mL)
MIC [7]: 3.1 µM (≈ 7.49 µg/mL)
MIC (Escherichia coli CE273): 3.1 µM (≈ 7.49 µg/mL)
MIC (Escherichia coli CR3): 6.3 µM (≈ 15.2 µg/mL)
MIC [8]: 6.3 µM (≈ 15.2 µg/mL)
MIC [9]: 3.1 µM (≈ 7.49 µg/mL)
MIC [10]: 6.3 µM (≈ 15.2 µg/mL)
MIC [11]: 6.3 µM (≈ 15.2 µg/mL)
MIC [12]: 1.6 µM (≈ 3.87 µg/mL)
MIC [13]: 25 µM (≈ 60.4 µg/mL)
MIC [14]: 12.5 µM (≈ 30.2 µg/mL)
MIC [15]: 6.3 µM (≈ 15.2 µg/mL)
Compound: CC[C@H](C)[C@H](NC(=O)CNC(=O)[C@H](CCCCN)NC(=O)[C@H](Cc1c[nH]c2ccccc12)NC(=O)[C@H](CC(N)=O)NC(=O)[C@@H](N)CCCCN)C(=O)N[C@@H](C)C(=O)NCC(=O)N[C@@H](CCSC)C(=O)N[C@@H](C)C(=O)N[C@@H](CCCCN)C(=O)N[C@@H](CCCCN)C(=O)N[C@@H](CC(C)C)C(=O)N[C@@H](CC(C)C)C(=O)NCC(=O)N[C@@H](CCCCN)C(=O)N[C@@H](CC(N)=O)C(=O)N[C@@H](Cc1c[nH]c2ccccc12)C(=O)N[C@@H](CCCCN)C(=O)N[C@@H](CC(C)C)C(=O)N[C@@H](CCSC)C(=O)O [KNWKGIAGMAKKLLGKNWKLM]
MIC [16]: ≥ 50 µM

MIC [17]: 10 µM (≈ 11.8 µg/mL)
MIC [18]: 10 µM (≈ 11.8 µg/mL)
MIC (Enterococcus faecium): 10 µM (≈ 11.8 µg/mL)
MIC (Escherichia coli O157): 10 µM (≈ 11.8 µg/mL)
MIC [19]: 20 µM (≈ 23.7 µg/mL)
MIC (Pseudomonas aeruginosa 1): 10 µM (≈ 11.8 µg/mL)
MIC (Pseudomonas aeruginosa): 5 µM (≈ 5.91 µg/mL)
MIC (Staphylococcus aureus 1): 5 µM (≈ 5.91 µg/mL)
MIC (Staphylococcus aureus 4): 10 µM (≈ 11.8 µg/mL)
MIC (Staphylococcus aureus): 20 µM (≈ 23.7 µg/mL)
MIC [20]: 28.3 µM (≈ 33.4 µg/mL)
Compound: CC[C@H](C)[C@H](NC(=O)[C@H](CC(C)C)NC(=O)[C@H](CCCN=C(N)N)NC(=O)[C@@H](NC(=O)[C@H](C)NC(=O)[C@H](CCCCN)NC(=O)[C@H](CC(C)C)NC(=O)[C@H](CC(C)C)NC(=O)[C@@H](N)CCC(=O)O)C(C)C)C(=O)N[C@@H](CCCCN)C(=O)O [ELLKAVRLIK]

MIC [21]: 3.12 µM (≈ 5.32 µg/mL)
MIC [22]: 1.56 µM (≈ 2.66 µg/mL)
MIC [23]: 12.5 µM (≈ 21.3 µg/mL)
MIC (Proteus vulgaris): 3.12 µM (≈ 5.32 µg/mL)
MIC [24]: 12.5 µM (≈ 21.3 µg/mL)
MIC [25]: 12.5 µM (≈ 21.3 µg/mL)
Compound: CC[C@H](C)[C@H](NC(=O)[C@H](CCCCN)NC(=O)[C@H](CCCCN)NC(=O)[C@H](Cc1ccccc1)NC(=O)[C@H](CC(C)C)NC(=O)[C@H](CCCCN)NC(=O)[C@H](Cc1c[nH]c2ccccc12)NC(=O)[C@@H](N)CCCCN)C(=O)N1CCC[C@H]1C(=O)N[C@@H](CC(C)C)C(=O)N[C@@H](CCCCN)C(=O)N[C@@H](CCCCN)C(=O)N[C@@H](Cc1ccccc1)C(N)=O [KWKLFKKIPLKKF]

MIC [22]: 0.78 µM (≈ 1.7 µg/mL)
MIC [26]: ≥ 50 µM
MIC [27]: 0.78 µM (≈ 1.7 µg/mL)
MIC [28]: 17.7 µM (≈ 38.6 µg/mL)
MIC [29]: 0.39 µM (≈ 0.852 µg/mL)
MIC [25]: 0.78 µM (≈ 1.7 µg/mL)
MIC [20]: ≥ 35.4 µM
Compound: CC[C@H](C)[C@H](NC(=O)CNC(=O)[C@H](CC(C)C)NC(=O)[C@H](CCCN=C(N)N)NC(=O)[C@H](CCCCN)NC(=O)[C@H](Cc1ccccc1)NC(=O)[C@@H](NC(=O)[C@H](CCCCN)NC(=O)[C@H](CCCCN)NC(=O)[C@H](C)N)C(C)C)C(=O)NCC(=O)N[C@@H](C)C(=O)N[C@H](C(=O)N[C@@H](CC(C)C)C(=O)N[C@@H](CCCCN)C(=O)N[C@H](C(=O)N[C@@H](CC(C)C)C(=O)N[C@H](C(=O)N[C@@H](Cc1c[nH]c2ccccc12)C(=O)NCC(=O)O)[C@@H](C)O)C(C)C)C(C)C [AKKVFKRLGIGAVLKVLTWG]

— DBAASP
